Measured values: patent publication US20080119548A1, “Control Of Feeding Behavior By Changing Neuronal Energy Balance” (priority 2004, published 2008)
Read-outs that look alike come from different tables or passages of the source.

Experiments:
BALB/c male mice = test: Measurement of food intake after i.c.v. or i.p. injection; format: in vivo; conditions: for reduction in food intake: compound C 5 mg i.c.v.
Protocol: Male BALB/c mice (7-9 weeks) were purchased from Charles River Laboratories (and housed in a controlled-light (12 hr light/12 hr dark cycle) environment (lights on 0200-1400 h) and allowed ad libitum access to standard laboratory chow and water. For fasting, food was withdrawn from cage at the onset of the dark cycle for 24 hr, but ad libitum access to water was allowed.
(§1) Mice were implanted with permanent stainless steel cannulae into the lateral ventricle of the brain 0.6 mm caudal to Bregma, 1.2 mm lateral to the midline, and sunk to a depth of 2.2 mm below the surface of the skull. Implanted mice were housed in individual cages and utilized for i.c.v. and i.p. injections as indicated. C75 dissolved in RPMI1640 (Gibco-BRL), AICAR (Toronto Research Chemicals Inc) or compound C (46) (FASgen, Inc.) in saline was injected i.c.v., such that desired dose could be administered in a volume of 2.5 μl, while control groups received vehicle only. Injections were done immediately preceding dark onset and food intake measurements were taken at 1 hr (0-1 hr interval), 3 hr (1-3 hr interval), and 24 hr (3-24 hr interval) after dark onset. C75 i.p./AICAR i.c.v. treatment groups were i.p. injected with 5 mg/kg bodyweight C75 dissolved in […] of glucose-free RPMI 1 hr before the dark onset, followed by 3 μg/2.5 μl saline i.c.v. AICAR immediately preceding the dark onset. Control groups received 200 μl of glucose free RPMI 1 hr before lights off and 2.5 μl of saline. Administration of i.p. compound C (10 or 30 mg/kg bodyweight) or C75 (10 mg/kg bodyweight) was followed by food intake measurement at the same times indicated.

[1] = Changes in bodyweight 24 hr after i.c.v. injection; format: in vivo, mice
Description: as §1, with “(d) Changes in bodyweight 24 hr after i.c.v. injection of C75, AICAR or compound C (n=4-10). Mice” for “Mice”, “[…],” for “C (46) (FASgen,”, “[…].” for “C75 i.p./AICAR i.c.v.”

[2] = test system: hypothalamic AMPKα (α1 and α2); test: Western blot of phosphorylated AMPKα in hypothalamus; format: in vivo, mice; conditions: 30 min after i.c.v. injection
Protocol: Hypothalami were dissected using as landmarks the optic chiasm rostrally, and the mammillary bodies caudally to a depth of 2 mm. Dissected hypothalamic and liver tissue were immediately frozen in liquid nitrogen. Tissues were homogenized in 200 μl of lysis buffer (50 mM Tris-HCl, pH 7.5, 250 mM sucrose, 5 mM sodium pyrophosphate, 50 mM NaF, 1 mM EDTA, 1 mM EGTA, 1 mM DTT, 0.5 mM PMSF, 0.1 mM benzamidine, 50 μg/ml leupeptin, 50 μg/ml soybean trypsin inhibitor). SDS detergent was added to a final 0.2%, and lysates were boiled for 5 min. After the supernatant was harvested, protein concentration was determined by BCA kit (Bio Rad). Phosphorylation of AMPKα was determined on a 4-15% gradient SDS-polyacrylamide gel using anti-phospho-AMPKα (α1 and α2, Thr172) antibody (1:1000, Cell Signaling). Anti-AMPKαt antibody (α1 and α2, 1:1000, Cell Signaling) was used as a loading control.

pCREB = test: Immunohistochemistry of pCREB in the arcuate nucleus; format: in vivo, mice; conditions: AICAR (3 mg) i.c.v., 20 hr after injection
Protocol: Free-floating sections were blocked in PBS containing 5% goat serum, 0.1% BSA, 0.05% Triton-X100, 1 mM NaF for 1 hr at room temperature and incubated with anti-phospho-AMPKα (α1 and α2) antibody (1:100) or anti-phospho-CREB antibody (1:500, Cell Signaling) in PBS containing 1% goat serum, 0.1% BSA, 0.05% Triton-X100, 1 mM NaF overnight at 4° C. Signal was visualized by Vectastain ABC kit (Vector). Images of in situ hybridization and immunohistochemistry were visualized using an Axiocam HRc digital camera (Carl Zeiss) and images were acquired using Improvision Openlab software, and quantified by NIH Image program (Macro).

hypothalamic NPY = test system: hypothalamic NPY
Protocol: Hypothalamic total RNA was purified using Trizol reagent (Gibco-BRL) and Northern blot analysis using 15 μg of total RNA was performed as described by Kim, et al, Am J Physiol Endocrinol Metab., 283, […]-879 (2002). RNA was hybridized with random primed ^32P-labeled DNA probes made from cloned plasmids of mouse AGRP (Genebank #U89486), human NPY (XM004941), rat CART (U10071), and mouse POMC (AH005319). As a loading control, the probe for mouse GAPDH gene was used at the same blot. The signals were quantified using an image analyzer (Molecular Dynamics) and Imagequant software.

[3] = chronic subcutaneous AICAR 1 g/kg bodyweight for 4 weeks; cited from earlier work

NC(=O)c1ncn([C@@H]2O[C@H](CO)[C@@H](O)[C@H]2O)c1N [AICAR, 5-aminoimidazole-4-carboxamide-1-b-D-ribofuranoside]
food intake, % of control (BALB/c male mice; AICAR 3 μg i.c.v., 3-24 hr): 135%
total 24 hr food intake, % of control (BALB/c male mice; AICAR 3 μg i.c.v., total 24 hr): 130 % of control
food intake, % of control (BALB/c male mice; AICAR 3 μg i.c.v., within 1 hr): 230%
food intake at 1 hr, % of the amount of C75/saline treatment (BALB/c male mice; C75 5 mg/kg i.p. followed 1 hr later by AICAR 3 mg i.c.v., p<0.001): 346%
bodyweight ([1]; AICAR single dose 3 μg i.c.v.): no significant effect on bodyweight
C75-induced decrease in hypothalamic pAMPKα levels ([2]; i.p. C75 and i.c.v. AICAR): completely reversed
hypothalamic pAMPKα level ([2]; i.p. RPMI and i.c.v. AICAR, vs vehicle): increased
pCREB level in the arcuate, % of control (pCREB): 231 % of control
hypothalamic NPY expression (hypothalamic NPY; AICAR (3 mg) i.c.v., 20 hrs after administration, p<0.001): significantly increased
NPY expression (hypothalamic NPY; AICAR i.c.v., within 5 hr (data not shown)): no change
bodyweight [3]: no impact
fat pad mass [3]: reduction in fat pad mass
food intake [3]: no impact
liver mass [3]: increase in liver mass

c1cc(-c2cnn3cc(-c4ccc(OCCN5CCCCC5)cc4)cnc23)ccn1 [compound C]
reduction in food intake (BALB/c male mice; 0-1 hr): 36.2%
reduction in food intake (BALB/c male mice; 3-24 hr): 37.8%
reduction in food intake (BALB/c male mice; over 24 hr): 35.6%
food intake, % of control (BALB/c male mice; compound C 30 mg/kg bodyweight i.p., 0-1 hr): 27.4 % of control
food intake, % of control (BALB/c male mice; compound C 30 mg/kg bodyweight i.p., 1-3 hr): 3.68 % of control
food intake, % of control (BALB/c male mice; compound C 30 mg/kg bodyweight i.p., 3-24 hr): 65.7 % of control
food intake, % of control (BALB/c male mice; compound C 30 mg/kg bodyweight i.p., total): 57.8 % of control
bodyweight ([1]; compound C 5 mg i.c.v.): weight loss
